Read-outs that look alike come from different tables or passages of the source. Each block holds one compound with its values, some of them ahead of it.
Columns and labels:
BxPC3 cells = experiment: Histone acetylation in BxPC3 cells after drug treatment; type: cell-based, human; conditions: for Mean fold-change in acetylation: TSA 0.5 μM; for EC50: read-out: apparent EC50 for activation
CBP = CBP (Homo sapiens, UniProt Q92793); experiment: C646 titration of CBP acetylation of H3/H4 under kcat conditions; type: biochemical
Sequence of CBP (Q92793 whole entry): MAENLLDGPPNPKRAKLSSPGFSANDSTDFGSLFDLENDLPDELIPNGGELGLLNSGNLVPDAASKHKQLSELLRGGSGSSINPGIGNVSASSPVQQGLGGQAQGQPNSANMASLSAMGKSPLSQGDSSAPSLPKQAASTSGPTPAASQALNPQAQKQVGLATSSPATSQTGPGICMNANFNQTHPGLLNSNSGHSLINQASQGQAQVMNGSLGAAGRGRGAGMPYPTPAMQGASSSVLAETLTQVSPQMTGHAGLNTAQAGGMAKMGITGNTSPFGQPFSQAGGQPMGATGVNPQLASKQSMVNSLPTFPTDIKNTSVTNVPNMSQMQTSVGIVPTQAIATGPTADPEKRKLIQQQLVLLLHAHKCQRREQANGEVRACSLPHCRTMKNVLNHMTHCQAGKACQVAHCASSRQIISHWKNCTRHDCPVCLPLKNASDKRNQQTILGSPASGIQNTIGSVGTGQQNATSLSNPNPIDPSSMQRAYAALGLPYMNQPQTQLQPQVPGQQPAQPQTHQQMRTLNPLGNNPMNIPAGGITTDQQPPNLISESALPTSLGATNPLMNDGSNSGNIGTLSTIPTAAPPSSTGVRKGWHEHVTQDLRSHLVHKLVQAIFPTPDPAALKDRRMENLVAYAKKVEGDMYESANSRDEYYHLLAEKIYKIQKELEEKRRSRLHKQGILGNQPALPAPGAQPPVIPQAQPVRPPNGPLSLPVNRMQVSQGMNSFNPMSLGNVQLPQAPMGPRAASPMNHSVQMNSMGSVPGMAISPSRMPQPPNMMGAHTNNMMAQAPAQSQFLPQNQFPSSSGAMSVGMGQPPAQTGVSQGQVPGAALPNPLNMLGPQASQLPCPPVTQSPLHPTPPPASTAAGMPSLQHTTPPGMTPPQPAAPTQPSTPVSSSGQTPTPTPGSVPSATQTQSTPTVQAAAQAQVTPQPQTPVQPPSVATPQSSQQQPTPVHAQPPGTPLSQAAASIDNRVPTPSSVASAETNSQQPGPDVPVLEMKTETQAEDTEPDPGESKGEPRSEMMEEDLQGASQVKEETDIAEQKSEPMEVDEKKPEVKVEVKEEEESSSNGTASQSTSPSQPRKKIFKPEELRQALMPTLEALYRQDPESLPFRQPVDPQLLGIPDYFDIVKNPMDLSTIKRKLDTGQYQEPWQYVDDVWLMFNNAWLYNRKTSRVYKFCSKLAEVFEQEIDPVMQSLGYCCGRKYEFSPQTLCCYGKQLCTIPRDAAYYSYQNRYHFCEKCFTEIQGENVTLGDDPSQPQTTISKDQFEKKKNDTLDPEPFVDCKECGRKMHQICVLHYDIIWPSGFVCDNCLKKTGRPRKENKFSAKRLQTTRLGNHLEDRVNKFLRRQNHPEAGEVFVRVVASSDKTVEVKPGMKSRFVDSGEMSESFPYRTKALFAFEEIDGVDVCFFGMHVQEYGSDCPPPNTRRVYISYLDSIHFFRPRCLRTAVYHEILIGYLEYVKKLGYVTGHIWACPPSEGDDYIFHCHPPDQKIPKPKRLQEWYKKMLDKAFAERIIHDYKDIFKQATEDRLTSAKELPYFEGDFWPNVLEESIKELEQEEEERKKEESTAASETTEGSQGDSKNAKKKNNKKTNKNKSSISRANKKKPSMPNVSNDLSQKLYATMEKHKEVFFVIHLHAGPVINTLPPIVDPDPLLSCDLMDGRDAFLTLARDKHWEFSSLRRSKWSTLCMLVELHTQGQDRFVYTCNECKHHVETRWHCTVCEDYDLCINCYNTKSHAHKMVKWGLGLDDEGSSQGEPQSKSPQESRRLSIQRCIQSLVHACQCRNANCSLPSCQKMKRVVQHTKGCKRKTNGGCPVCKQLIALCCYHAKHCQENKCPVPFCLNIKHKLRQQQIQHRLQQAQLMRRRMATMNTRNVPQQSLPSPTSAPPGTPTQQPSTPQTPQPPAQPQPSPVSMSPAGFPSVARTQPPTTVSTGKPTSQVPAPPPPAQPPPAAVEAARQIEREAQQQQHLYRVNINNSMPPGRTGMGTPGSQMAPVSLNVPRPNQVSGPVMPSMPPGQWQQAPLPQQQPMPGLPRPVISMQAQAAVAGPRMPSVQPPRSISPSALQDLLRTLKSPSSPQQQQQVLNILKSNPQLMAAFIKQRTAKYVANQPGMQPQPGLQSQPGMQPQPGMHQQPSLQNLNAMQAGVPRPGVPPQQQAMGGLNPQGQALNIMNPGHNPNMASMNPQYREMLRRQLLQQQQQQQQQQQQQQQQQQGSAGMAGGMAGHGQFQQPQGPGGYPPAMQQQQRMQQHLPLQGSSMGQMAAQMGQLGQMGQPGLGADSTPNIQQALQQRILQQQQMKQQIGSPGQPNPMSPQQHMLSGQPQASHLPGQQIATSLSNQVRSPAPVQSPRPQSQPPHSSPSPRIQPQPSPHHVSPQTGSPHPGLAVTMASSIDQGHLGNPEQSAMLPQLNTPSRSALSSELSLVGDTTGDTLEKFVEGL

SMILES: CC(/C=C/C(=O)NO)=C\[C@@H](C)C(=O)c1ccc(N(C)C)cc1 [TSA]
Mean fold-change in acetylation (BxPC3 cells; site H3K9, 4 hours, after 16 hours of serum starvation): 3.02 fold
Mean fold-change in acetylation (BxPC3 cells; site H3K9, 4 hours, no starvation): 68.56 fold
increase of acetylation relative to C646 (BxPC3 cells; site H3K9, TSA versus C646): 42 fold
Mean fold-change in acetylation (BxPC3 cells; site H3K14, 4 hours, after 16 hours of serum starvation): 1.65 fold
Mean fold-change in acetylation (BxPC3 cells; site H3K14, 4 hours, no starvation): 2.412 fold
Mean fold-change in acetylation (BxPC3 cells; site H3K18, 4 hours, after 16 hours of serum starvation): 1.94 fold
Mean fold-change in acetylation (BxPC3 cells; site H3K23, 4 hours, after 16 hours of serum starvation): 1.78 fold
Mean fold-change in acetylation (BxPC3 cells; site H3K23, 4 hours, no starvation): 2.83 fold

SMILES: CC(C)(CCCCCCCCCCC(C)(C)CC(=O)O)CC(=O)O [MEDICA 16, beta, beta’-tetramethylhexadecanedioic acid]
effect of MEDICA 16 pretreatment on the acetylation response to C646 (BxPC3 cells; 5 μM MEDICA 16 for 24 hours prior to […] C646): muted stimulatory response to C646

EC50 (BxPC3 cells; site H3K18, 4 hours): ~400 nM
EC50 (BxPC3 cells; site H3K23, 4 hours): ~400 nM
IC50 (BxPC3 cells; read-out: apparent IC50 of inhibition, site H3K18, 4 hours): ~6800 nM
C646 concentration range inhibiting CBP (CBP; compared with p300): within the nanomolar range
effect of C646 on CBP acetylation activity (CBP; kcat conditions, other sites mainly displayed an inhibitory effect): biphasic dependence for H3K18
SMILES: CC1=NN(c2ccc(C(=O)O)cc2)C(=O)/C1=C\c1ccc(-c2cc(C)c(C)cc2[N+](=O)[O-])o1 [C646]
stimulation of acetylation in parental BxPC3 cells (BxPC3 cells; parental cells, compared with p300-depleted cells): ≤ 2.5 fold

From publication PMC4327817 (ACS chemical biology, 2014)
